We go through four compounds from PMC7893776, “Selecting an anti-malarial clinical candidate from two potent dihydroisoquinolones” (Malaria Journal, 2021).

Read-outs that look alike come from different tables or passages of the source. Marks after values point to notes of the source that are not given here.

A short description of data set [1]: Rat single oral dose toxicology / toxicokinetic study. It is filed as in vivo, male Sprague Dawley rats. The method, then:
The high dose levels of both compounds (50, 100, 200 mg/kg, PO, (+)-SJ733/311) were also independently tested by SRI, with a single oral gavage administration. Blood (through jugular vein) and urine were collected at time points up to 72 and 24 h post dose, respectively. Supernatant plasma was removed following centrifugation and stored frozen (− 70 °C) until LC–MS analysis. For toxicology studies, male Sprague Dawley rats were administered 50, 100, 250, 500, or 750 mg/kg of (r)-SJ733 or (r)-SJ311 by oral gavage (one dose per animal). Body weights were recorded on Day 1 prior to dose administration and on Day 4. Blood samples (400 µL) were collected at 4 and 24 h post drug administration from the retro-orbital sinus. Potassium EDTA treated plasma was collected and kept frozen at -70 °C for bioanalytical analysis. Rat samples from the toxicokinetic study at SRI were analyzed at SJCRH using the method described above. The calibration range was from 47 to 26,000 ng/mL for plasma.

Data set [2] is described as follows: pKa by potentiometric titration. It is filed as physicochemical. As for the experimental part:
Octanol/pH 7.4 buffer partitioning experiments were conducted using a shake flask method, and pKa was assessed by potentiometric titration. Both methods have been described previously.

Details of data set [3]: method as in PMID 31898492. The following applies: human whole blood; cited from earlier work.
The subject of data set [4] is recombinant human CYP1A1, 1A2, 1B1, 2B6, 2C8, 2C9, 2C19, 2D6, 3A4. Put plainly: Recombinant human cytochrome P450 (rhCYP) metabolism. Type of data set: in vitro ADME. As for the experimental part:
SJ733 was first pre-incubated with Bactosomes™ (Cypex Ltd, final P450 concentration: CYP1A1 25 pmol/mL, CYP1A2 100 pmol/mL,CYP1B1 100 pmol/mL, CYP2B6 100 pmol/mL, CYP2C8 50 pmol/mL, CYP2C9, 25 pmol/mL, CYP2C19 100 pmol/mL, CYP2D6 50 pmol/mL and CYP3A4 25 pmol/mL, 0.1 M phosphate buffer pH 7.4) at 37 °C prior to the addition of NADPH (final concentration 1 mM) to initiate the reaction with a final incubation volume of 50 μL. Incubations were also performed using control Bactosomes™ (no P450 enzymes present) to reveal any non-enzymatic degradation. Control compounds known to be metabolized specifically by each P450 isoform were included individually. Test articles and controls were incubated with each isoform for 0, 5, 15, 30, and 45 min. The reactions were stopped by transferring 20 μL of the reaction mixture to 60 μL methanol at the appropriate timepoints.

Details of data set [5]: method as in earlier work. The following applies: 6 h, cited from earlier work.
On the set-up of data set [6]: method as in PMID 31898492. The following applies: octanol/pH 7.4 buffer, averaged from high and low concentration partition samples; cited from earlier work.

As for `N#Cc1cc(NC(=O)C2c3ccccc3C(=O)N(CC(F)(F)F)C2c2cn[nH]c2)ccc1F` (racemic) [(r)-SJ311], the clinical observation entry in data set [1] (rats, 100 and 500 mg/kg groups, single oral gavage) is listed as “Ruffled fur”. The pKa in data set [2] is listed as 11.1 ± 0.3.

As for `N#Cc1cc(NC(=O)C2c3ccccc3C(=O)N(CC(F)(F)F)C2c2cccnc2)ccc1F` (racemic) [(r)-SJ733], in data set [3], the B/P ratio is 0.72 ± 0.02^b.

With `N#Cc1cc(NC(=O)[C@H]2c3ccccc3C(=O)N(CC(F)(F)F)[C@@H]2c2cccnc2)ccc1F` (racemic) [SJ733], in data set [1] (rat), the “AUCinf at the highest event free dose” value is listed as “over 217 µM h”. Moreover, the adverse events entry in data set [1] (rat, at any dose) is given as “No adverse events”. In data set [1] (rat, in vivo), the provable therapeutic window result is on record as “above 40”. For the same compound, the formation of metabolites entry is given as “no detectable formation of metabolites” in data set [4] (incubation with CYP1A1, 1A2, 1B1, 2B6, 2C9, or 2C19 recombinant enzymes); “Metabolite formation was only observed” in data set [4] (incubations with CYP2C8, 2D6, and 3A4 recombinant enzymes).

`N#Cc1cc(NC(=O)[C@H]2c3ccccc3C(=O)N(CC(F)(F)F)[C@@H]2c2cccnc2)ccc1F` [(+)-SJ733]: the Solubility was 216^b µM in data set [5] (FaSSIF-V2 pH 6.5, 37°C); 254^b µM in data set [5] (FeSSIF-V2 pH 5.8, 37°C); 246^b µM in data set [5] (Phosphate buffer pH 7.4, 37°C). Also, the “LogD (7.4) Shake flask” value in data set [6] is on record as 3.90 ± 0.01^a,b.

Usually pKa stands for the negative logarithm of the acid dissociation constant. Lower therefore signals a stronger acid or weaker base.
